Measured values published in US20090298820A1, “3-SUBSTITUTED-1H-PYRROLO[2,3-B]PYRIDINE AND 3-SUBSTITUTED-1H-PYRROLO[3,2-B]PYRIDINE COMPOUNDS, THEIR USE AS MTOR KINASE AND PI3 KINASE INHIBITORS, AND THEIR SYNTHESES” (Wyeth, priority 2008, published 2009).

Assays:
PI3Kα = PI3Kα (Homo sapiens, UniProt P42336); assay: PI3K-alpha fluorescence polarization assay; assay type: biochemical; conditions: read-out: PI3Kα Median IC50
PI3Kγ = PI3Kγ (Homo sapiens, UniProt P48736); assay: PI3K-gamma fluorescence polarization assay; assay type: biochemical; conditions: read-out: PI3Kγ Median IC50
mTOR = mTOR (Homo sapiens, UniProt P42345); assay: mTOR enzyme assay (DELFIA format, His6-S6K substrate); assay type: biochemical; conditions: read-out: mTOR Kinase Median IC50

Sequence of PI3Kγ (P48736 whole entry, species assumed): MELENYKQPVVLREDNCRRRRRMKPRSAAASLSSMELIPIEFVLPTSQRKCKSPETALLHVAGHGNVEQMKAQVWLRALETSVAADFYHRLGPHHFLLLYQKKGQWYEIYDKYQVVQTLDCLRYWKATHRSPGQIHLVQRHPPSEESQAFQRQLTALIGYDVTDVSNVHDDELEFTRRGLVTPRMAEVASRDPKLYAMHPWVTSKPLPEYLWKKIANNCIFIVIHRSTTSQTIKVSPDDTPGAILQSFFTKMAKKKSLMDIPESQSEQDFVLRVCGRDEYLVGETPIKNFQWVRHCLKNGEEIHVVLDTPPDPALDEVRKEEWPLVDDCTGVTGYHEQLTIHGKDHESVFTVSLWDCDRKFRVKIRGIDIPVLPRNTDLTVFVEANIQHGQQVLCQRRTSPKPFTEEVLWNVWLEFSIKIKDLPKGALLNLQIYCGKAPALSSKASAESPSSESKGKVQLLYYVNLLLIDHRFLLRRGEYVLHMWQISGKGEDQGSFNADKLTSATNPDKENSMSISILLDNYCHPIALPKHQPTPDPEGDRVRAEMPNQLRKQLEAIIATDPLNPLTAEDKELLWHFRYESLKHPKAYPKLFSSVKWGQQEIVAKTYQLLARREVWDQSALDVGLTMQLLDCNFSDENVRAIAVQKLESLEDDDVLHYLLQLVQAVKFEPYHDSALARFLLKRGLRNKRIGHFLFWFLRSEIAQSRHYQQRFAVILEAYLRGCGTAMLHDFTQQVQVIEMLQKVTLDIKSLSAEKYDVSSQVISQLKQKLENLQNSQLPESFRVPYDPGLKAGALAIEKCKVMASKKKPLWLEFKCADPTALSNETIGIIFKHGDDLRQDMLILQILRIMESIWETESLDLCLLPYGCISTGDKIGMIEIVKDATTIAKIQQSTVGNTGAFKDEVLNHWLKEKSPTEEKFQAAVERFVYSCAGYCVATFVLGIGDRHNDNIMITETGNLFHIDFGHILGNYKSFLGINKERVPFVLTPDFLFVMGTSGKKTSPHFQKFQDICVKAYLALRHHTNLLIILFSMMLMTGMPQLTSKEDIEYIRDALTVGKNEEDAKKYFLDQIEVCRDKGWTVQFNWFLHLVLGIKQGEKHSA
Sequence of PI3Kα (P42336 whole entry, species assumed): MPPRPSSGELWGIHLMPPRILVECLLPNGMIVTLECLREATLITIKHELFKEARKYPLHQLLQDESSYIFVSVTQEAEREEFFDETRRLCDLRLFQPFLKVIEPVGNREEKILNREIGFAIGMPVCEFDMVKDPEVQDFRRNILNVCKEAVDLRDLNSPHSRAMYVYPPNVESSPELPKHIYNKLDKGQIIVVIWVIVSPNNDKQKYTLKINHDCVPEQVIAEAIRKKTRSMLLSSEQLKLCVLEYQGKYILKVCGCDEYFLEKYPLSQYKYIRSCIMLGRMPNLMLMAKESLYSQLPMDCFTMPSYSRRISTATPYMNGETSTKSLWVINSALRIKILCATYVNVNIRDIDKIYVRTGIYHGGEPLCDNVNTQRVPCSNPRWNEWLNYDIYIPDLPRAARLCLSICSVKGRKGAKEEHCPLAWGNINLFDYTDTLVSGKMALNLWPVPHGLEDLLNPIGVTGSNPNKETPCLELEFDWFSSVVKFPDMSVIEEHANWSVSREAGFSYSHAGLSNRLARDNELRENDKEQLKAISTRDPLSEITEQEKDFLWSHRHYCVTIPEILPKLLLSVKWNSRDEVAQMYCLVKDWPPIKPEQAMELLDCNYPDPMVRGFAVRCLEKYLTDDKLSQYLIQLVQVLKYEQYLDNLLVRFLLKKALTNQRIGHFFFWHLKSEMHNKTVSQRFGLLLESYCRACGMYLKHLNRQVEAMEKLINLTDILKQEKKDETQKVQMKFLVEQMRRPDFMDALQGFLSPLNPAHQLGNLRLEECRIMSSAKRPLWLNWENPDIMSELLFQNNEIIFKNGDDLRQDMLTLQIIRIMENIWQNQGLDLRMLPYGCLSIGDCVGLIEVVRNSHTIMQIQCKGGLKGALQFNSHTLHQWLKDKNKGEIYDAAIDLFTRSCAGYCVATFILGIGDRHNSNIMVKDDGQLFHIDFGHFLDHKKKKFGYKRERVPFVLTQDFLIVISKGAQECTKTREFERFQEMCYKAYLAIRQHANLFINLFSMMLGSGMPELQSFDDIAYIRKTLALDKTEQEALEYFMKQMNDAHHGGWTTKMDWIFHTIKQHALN
Sequence of PI3Kα (P27986 whole entry partner, species assumed): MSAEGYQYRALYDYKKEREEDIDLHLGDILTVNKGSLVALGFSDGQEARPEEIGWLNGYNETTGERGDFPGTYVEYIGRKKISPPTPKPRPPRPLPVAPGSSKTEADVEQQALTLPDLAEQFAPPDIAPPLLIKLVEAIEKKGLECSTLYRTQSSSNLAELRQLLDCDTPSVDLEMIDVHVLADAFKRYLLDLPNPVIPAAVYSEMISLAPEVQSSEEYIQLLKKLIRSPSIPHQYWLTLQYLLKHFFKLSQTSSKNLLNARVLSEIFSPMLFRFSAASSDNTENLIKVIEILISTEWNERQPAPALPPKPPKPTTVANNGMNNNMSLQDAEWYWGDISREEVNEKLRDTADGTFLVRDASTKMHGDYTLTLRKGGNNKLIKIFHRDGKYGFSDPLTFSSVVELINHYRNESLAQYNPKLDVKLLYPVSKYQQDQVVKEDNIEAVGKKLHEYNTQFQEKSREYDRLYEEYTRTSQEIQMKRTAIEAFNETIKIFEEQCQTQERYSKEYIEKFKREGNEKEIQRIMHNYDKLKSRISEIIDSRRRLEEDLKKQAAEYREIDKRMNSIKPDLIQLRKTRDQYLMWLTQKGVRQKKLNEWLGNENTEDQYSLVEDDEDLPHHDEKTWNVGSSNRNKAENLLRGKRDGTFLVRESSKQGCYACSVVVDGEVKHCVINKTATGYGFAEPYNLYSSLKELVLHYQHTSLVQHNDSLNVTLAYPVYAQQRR

Compound	IC50 (PI3Kα)	IC50 (PI3Kγ)	IC50 (mTOR)	melting point
Cn1cc(/C=C2\Oc3cccc(N)c3C2=O)c2c(-c3ccccc3)ccnc21 [Compound 108, (2Z)-4-amino-2-[(1-methyl-4-phenyl-1H-pyrrolo[2,3-b]pyridin-3-yl)methylene]-1-benzofuran-3(2H)-one]	6110 nM	> 10000 nM	53 nM	262 to 268 °C
Cn1cc(/C=C2\Oc3cccc(O)c3C2=O)c2c(N3CCCC(C(=O)N4CCCC4)C3)ccnc21 (centres unmarked) [Compound 109, (2Z)-4-hydroxy-2-({1-methyl-4-[3-(pyrrolidin-1-ylcarbonyl)piperidin-1-yl]-1H-pyrrolo[2,3-b]pyridin-3-yl}methylene)-1-benzofuran-3(2H)-one]	152 nM	253 nM	4.4 nM	235 to 240 °C
Cn1cc(/C=C2\Oc3cccc(O)c3C2=O)c2c(-c3cccc(OC(F)(F)F)c3)ccnc21 [Compound 110, (2Z)-4-hydroxy-2-({1-methyl-4-[3-(trifluoromethoxy)phenyl]-1H-pyrrolo[2,3-b]pyridin-3-yl}methylene)-1-benzofuran-3(2H)-one]	651 nM	> 10000 nM	82.5 nM	230 to 233 °C
CN(C)C(=O)c1ccc(-c2ccnc3c2c(/C=C2\Oc4cccc(O)c4C2=O)cn3C)cc1 [Compound 111, 4-{3-[(Z)-(4-hydroxy-3-oxo-1-benzofuran-2(3H)-ylidene)methyl]-1-methyl-1H-pyrrolo[2,3-b]pyridin-4-yl}-N,N-dimethylbenzamide]	36 nM	66 nM	0.5 nM	212 to 218 °C
CN(C)C1CCN(c2ccnc3c2c(/C=C2\Oc4cccc(O)c4C2=O)cn3C)C1 (centres unmarked) [Compound 112, (2Z)-2-({4-[3-(dimethylamino)pyrrolidin-1-yl]-1-methyl-1H-pyrrolo[2,3-b]pyridin-3-yl}methylene)-4-hydroxy-1-benzofuran-3(2H)-one]	120 nM	576 nM	39 nM	205 °C
CN(C)Cc1ccc(-c2ccnc3c2c(/C=C2\Oc4cccc(O)c4C2=O)cn3C)cc1 [Compound 113, (2Z)-2-[(4-{4-[(dimethylamino)methyl]phenyl}-1-methyl-1H-pyrrolo[2,3-b]pyridin-3-yl)methylene]-4-hydroxy-1-benzofuran-3(2H)-one]	101 nM	626 nM	20 nM	340 to 350 °C
Cn1cc(/C=C2\Oc3cccc(O)c3C2=O)c2c(N3CCC(C(N)=O)CC3)ccnc21 [Compound 114, 1-{3-[(Z)-(4-hydroxy-3-oxo-1-benzofuran-2(3H)-ylidene)methyl]-1-methyl-1H-pyrrolo[2,3-b]pyridin-4-yl}piperidine-4-carboxamide]	29 nM	127 nM	0.7 nM	280 to 287 °C
Cn1cc(/C=C2\Oc3cccc(O)c3C2=O)c2c(N3CCC(CN)CC3)ccnc21 [Compound 115, (2Z)-2-({4-[4-(aminomethyl)piperidin-1-yl]-1-methyl-1H-pyrrolo[2,3-b]pyridin-3-yl}methylene)-4-hydroxy-1-benzofuran-3(2H)-one]	155 nM	208 nM	17 nM	230 to 238 °C
Cn1cc(/C=C2\Oc3cccc(O)c3C2=O)c2c(N3CC4CC3CO4)ccnc21 (centres unmarked) [Compound 117, (2Z)-4-hydroxy-2-{[1-methyl-4-(2-oxa-5-azabicyclo[2.2.1]hept-5-yl)-1H-pyrrolo[2,3-b]pyridin-3-yl]methylene}-1-benzofuran-3(2H)-one]	30 nM	88 nM	4.4 nM	258 to 263 °C
CN(C)CCCN1CCN(c2ccnc3c2c(/C=C2\Oc4cccc(O)c4C2=O)cn3C)CC1 [Compound 118, (2Z)-2-[(4-{4-[3-(dimethylamino)propyl]piperazin-1-yl}-1-methyl-1H-pyrrolo[2,3-b]pyridin-3-yl)methylene]-4-hydroxy-1-benzofuran-3(2H)-one]	286 nM	791 nM	20 nM	263 to 268 °C
CN(C)C(=O)c1cccc(-c2ccnc3c2c(/C=C2\Oc4cccc(O)c4C2=O)cn3C)c1 [Compound 121, 3-{3-[(Z)-(4-hydroxy-3-oxo-1-benzofuran-2(3H)-ylidene)methyl]-1-methyl-1H-pyrrolo[2,3-b]pyridin-4-yl}-N,N-dimethylbenzamide]	369 nM	425 nM	18 nM	220 to 223 °C
CN(C)Cc1cccc(-c2ccnc3c2c(/C=C2\Oc4cccc(O)c4C2=O)cn3C)c1 [Compound 122, (2Z)-2-[(4-{3-[(dimethylamino)methyl]phenyl}-1-methyl-1H-pyrrolo[2,3-b]pyridin-3-yl)methylene]-4-hydroxy-1-benzofuran-3(2H)-one]	60 nM	279 nM	18 nM	308 to 315 °C
CN1CCN(C2CCN(c3ccnc4c3c(/C=C3\Oc5cccc(O)c5C3=O)cn4C)CC2)CC1 [Compound 129, (2Z)-4-hydroxy-2-({1-methyl-4-[4-(4-methylpiperazin-1-yl)piperidin-1-yl]-1H-pyrrolo[2,3-b]pyridin-3-yl}methylene)-1-benzofuran-3(2H)-one]	47 nM	167 nM	14 nM	239 to 242 °C
CNC(=O)Nc1ccc2c(c1)C(=O)/C(=C/c1cn(C)c3nccc(N4CC5CCC(C4)O5)c13)O2 [Compound 131, 1-methyl-3-[(2Z)-2-{[1-methyl-4-(8-oxa-3-azabicyclo[3.2.1]oct-3-yl)-1H-pyrrolo[2,3-b]pyridin-3-yl]methylene}-3-oxo-2,3-dihydro-1-benzofuran-5-yl]urea]	580 nM	557 nM	9.5 nM	247 to 255 °C
CNC(=O)c1ccc(-c2ccnc3c2c(/C=C2\Oc4cccc(O)c4C2=O)cn3C)cc1 [Compound 132, 4-{3-[(Z)-(4-hydroxy-3-oxo-1-benzofuran-2(3H)-ylidene)methyl]-1-methyl-1H-pyrrolo[2,3-b]pyridin-4-yl}-N-methylbenzamide]	33 nM	83 nM	1.7 nM	175 °C
CNC(=O)Nc1ccc(-c2ccnc3c2c(/C=C2\Oc4cccc(O)c4C2=O)cn3C)cc1 [Compound 133, 1-(4-{3-[(Z)-(4-hydroxy-3-oxo-1-benzofuran-2(3H)-ylidene)methyl]-1-methyl-1H-pyrrolo[2,3-b]pyridin-4-yl}phenyl)-3-methylurea]	37 nM	30 nM	1.5 nM	298 to 305 °C (dec.)
CC(=O)c1ccc(-c2ccnc3c2c(/C=C2\Oc4cccc(O)c4C2=O)cn3C)cc1 [Compound 134, (2Z)-2-{[4-(4-acetylphenyl)-1-methyl-1H-pyrrolo[2,3-b]pyridin-3-yl]methylene}-4-hydroxy-1-benzofuran-3(2H)-one]	55 nM	89 nM	3.8 nM	250 to 253 °C
Cn1cc(/C=C2\Oc3cccc(O)c3C2=O)c2c(N3CCC(N)CC3)ccnc21 [Compound 139, (2Z)-2-{[4-(4-aminopiperidin-1-yl)-1-methyl-1H-pyrrolo[2,3-b]pyridin-3-yl]methylene}-4-hydroxy-1-benzofuran-3(2H)-one]	119 nM	1270 nM	19 nM	260 °C
CN(C)C(=O)Nc1ccc(-c2ccnc3c2c(/C=C2\Oc4cccc(O)c4C2=O)cn3C)cc1 [Compound 140, 3-(4-{3-[(Z)-(4-hydroxy-3-oxo-1-benzofuran-2(3H)-ylidene)methyl]-1-methyl-1H-pyrrolo[2,3-b]pyridin-4-yl}phenyl)-1,1-dimethylurea]	59 nM	74 nM	2 nM	235 to 238 °C
CN(C)C(=O)c1ccccc1-c1ccnc2c1c(/C=C1\Oc3cccc(O)c3C1=O)cn2C [Compound 141, 2-{3-[(Z)-(4-hydroxy-3-oxo-1-benzofuran-2(3H)-ylidene)methyl]-1-methyl-1H-pyrrolo[2,3-b]pyridin-4-yl}-N,N-dimethylbenzamide]	5900 nM	1860 nM	180 nM	293 to 295 °C
Cn1cc(/C=C2\Oc3cccc(O)c3C2=O)c2c(-c3ccc(C(=O)N4CC5CCC(C4)O5)cc3)ccnc21 [Compound 144, (2Z)-4-hydroxy-2-({1-methyl-4-[4-(8-oxa-3-azabicyclo[3.2.1]oct-3-ylcarbonyl)phenyl]-1H-pyrrolo[2,3-b]pyridin-3-yl}methylidene)-1-benzofuran-3(2H)-one]	57 nM	77 nM	0.6 nM	296 to 298 °C
CN(C)C(=O)C1CCN(c2ccnc3c2c(/C=C2\Oc4cccc(O)c4C2=O)cn3C)CC1 [Compound 145, 1-{3-[(Z)-(4-hydroxy-3-oxo-1-benzofuran-2(3H)-ylidene)methyl]-1-methyl-1H-pyrrolo[2,3-b]pyridin-4-yl}-N,N-dimethylpiperidine-4-carboxamide]	38 nM	74 nM	0.6 nM	185 to 195 °C
Cn1cc(/C=C2\Oc3cccc(O)c3C2=O)c2c(N3CCC(C(=O)NCCO)CC3)ccnc21 [Compound 148, N-(2-hydroxyethyl)-1-{3-[(Z)-(4-hydroxy-3-oxo-1-benzofuran-2(3H)-ylidene)methyl]-1-methyl-1H-pyrrolo[2,3-b]pyridin-4-yl}piperidine-4-carboxamide]	39 nM	94 nM	0.7 nM	232 to 242 °C
